“And” between values parts separate entries of the source, which are not always exact repeats. Equal values may be shown once. Square brackets hold non-standard residues; d marks the D form. Peptide text beside a SMILES is read from it.
Key:
[1] = tested on: hemopoietic precursor cells; assay: Exogenous spleen colonies from bone marrow irradiated ex vivo with 1 Gy; type: in vivo
Procedure: In this study, the method of exogenous spleen colonies was applied. A suspension of intact bone marrow cells was irradiated ex vivo in the dose of 1 Gy. Different doses of Neogen or cyclic peptides were injected IP, 1M, subcutaneous or introduced per os to lethally irradiated recipients within an hour after the injection of irradiated bone marrow. Colonies were counted on day 8. All data in each group was the mean of three tests.

[2] = Solubility of peptides in 0.1% NH4OH; type: physicochemical; details: for solubility when titrated with 0.1% AcOH: titrated with 0.1% AcOH to pH=8.4 to 8.5
Anti-OVA antibody titers = assay: Adjuvant activity, anti-OVA antibody titers by ELISA (Example 8); type: in vivo, Balb/c mice; details: for Stimulation index / Anti-protein antibody titer / Pool: Table 8; for Anti-protein antibody titer: one value per mouse; for Pool: pooled sera titer
Procedure: Adjuvant activity was tested on 11 groups of Balb/c mice (obtained from Stolbovaya Breeding Station). Each group consisted of 7 animals. Three immunizations were performed as follows:
• Group 1—ovalbumin 25 micrograms per animal (Mouse Nos. 1 to 7) • Group 2—ovalbumin 25 micrograms per animal+CFA (Complete Freund's adjuvant) (Mouse Nos. 8 to 14) • Group 3—ovalbumin 25 micrograms per animal+adjuvant of compound 33a 100 micrograms per animal (Mouse Nos. 15 to 21) • Group 4—ovalbumin 25 micrograms per animal+adjuvant of compound 33a 10 micrograms per animal (Mouse Nos. […]) • Group 5—ovalbumin 25 micrograms per animal+adjuvant of compound 33a 1 microgram per animal (Mouse Nos. […]) • Group 6—ovalbumin 25 micrograms per animal+adjuvant of compound 33b 100 micrograms per animal (No. 36 to 42) • Group 7—ovalbumin 25 micrograms per animal+adjuvant of compound 33b 10 micrograms per animal (Mouse Nos. 43 to 49) • Group 8—ovalbumin 25 micrograms per animal+adjuvant of compound 33b 1 microgram per animal (Mouse Nos. 50 to 56) • Group 9—ovalbumin 25 micrograms per animal+adjuvant of compound 17 100 micrograms per animal (Mouse Nos. 57 to 63) • Group 10—ovalbumin 25 micrograms per animal+adjuvant of compound 1710 micrograms per animal (Mouse Nos. 64 to 70) • Group 11—ovalbumin 25 micrograms per animal+adjuvant of compound 171 microgram per animal (Mouse Nos. 71 to 77) Second Immunization:
The same set 14 days after first immunization by injection of 12.5 micrograms of ovalbumin/mouse to mouse nos. 1 to 77.
The same set 28 days after first immunization by injection of 12.5 micrograms of ovalbumin/mouse to mouse nos. 1 to 77.
On day 35 after first immunization, blood samples from each mouse were collected.
OVA (10 micrograms/ml) solution in 0.05 M sodium carbonate buffer (pH 9.5) was added to plate wells, 0.1 ml per well and incubated at 4° C. for 16 hours. The OVA solution was then removed and the plate was washed 4 times with PBS containing 0.05% Tween-20. Such washing was performed after each incubation stage. Serial twofold dilutions of sera (starting from 1:100 or 1:1000) were added to the wells, 0.1 ml per well and incubated at 37° C. for 1 hour followed by incubation (1 hour, 37° C.) with HRP-conjugated goat anti-mouse IgG antibodies (0.1 ml, 1 mg/ml in PBS) and then with a 0.1 mL substrate solution −0.05% H2O2 and 0.05% o-phenylene diamine in 0.05M sodium citrate buffer with a pH of 4.5. The reaction was stopped by adding 100 μl of 12.5% H2SO4. Absorbance was measured at a wavelength of 492 nm using a Multiscan Plus MKII (Flow Laboratories, Great Britain). Significant anti-protein antibody titer (for individual sera) was assessed as the serum dilution produced an absorbance value of more than 0.1 ODU and the minimum exceeds three times the control level. The antibody titer was presented and −log of dilution (FIGS. 2 and 3). The stimulation index for pooled sera was calculated by dividing the test pooled sera dilution producing OD=1 by the dilution of pooled sera from mice immunized without the adjuvant, producing OD=1. The results of the adjuvant activities of cyclo-L-Ala-L-Glu-(L-Trp-OH) (Compound 17), cyclo-L-Lys(N-acetyl-Glycosamine-N-acetyl-muramil)-L-Glu-(L-Trp-OH) (Compound 33a) and cyclo-D-Lys(N-acetyl-Glycosamine-N-acetyl-muramil)-D-Glu-(L-Trp-OH) (Compound 33b) are shown in Table 7 and the adjuvant activities of cyclo [L-Lys(Palmitoyil)-L-Glu(D-Trp-OH)] (Compound 26a) and cyclo [D-Lys(Palmitoyil)-D-Glu(D-Trp-OH)] (Compound 26b) are shown in Table 8 as well as in FIG. 4 which includes the results of the adjuvant activities of cyclo-L-Lys-L-Glu-(L-Trp-OH) (compound 19). It is noted that the peptides of compounds 26a and 26b are soluble in 0.1% NH4OH at a concentration of 1 mg per 1 to 2 ml.

[3] = target: μ-receptor (isolated guinea pig ileum, GPI) (Cavia porcellus, UniProt P97266); assay: Peripheral opioid activity: inhibition of electrically-induced contractions of isolated guinea pig ileum (GPI)
Procedure: The segment of GPI about 1 cm long was placed into a 10-ml organ bath containing Krebs solution at 34° C. […] Resting tension of the organ was 1 g. The segment of GPI was stimulated by single pulses duration 1 ms with 0.1 Hz at 80 V. The solution with isolated organs was constantly aerated. The contractions were recorded in an isometrical mode by a sensor K 30 (Hugo Sachs Elektronic KG) with paper register Rikadenki-series (Japan).
The substances tested were dissolved in distilled water and added cumulatively to the organ bath at a volume of 5 to 30 mcl. Each subsequent substance was added after the isolated organs were washed 3 or 4 times for 12-15 min. On the basis of the data obtained, dose-effects curves were plotted and the activity of substances was expressed by IC50 or pD2. The pD2 index was equal to a negative decimal logarithm of the substance concentration causing a 50% of the maximal effect.
New dermorphin analogues were tested in the standard model of Guinea pig ileum binding test.
For confirmation of opioid activity, the specific antagonist naloxson was used in concentration of 10^−5M. Each molecule was tested in 5 independent replications and relative activity was calculated as negative logarithm of EC50 (pD2).

mice F1(CBAxC57D16) = assay: Analgesic activity, tail flick test, water 48° C., intraperitoneal; type: in vivo; details: Table 10; for Initial sensitivity level: before injection
Procedure: Two hundred and twenty mice F1(CBAxC57D16) first generation hybrids were used for testing of analgesic activity using the “tail flick” test. The water temperature was at 48° C. The maximal effect was for the period of 30 seconds. All peptides were injected intraperitoneally in the doses of 5, 10 or 20 mg/kg. Analgesic effect was estimated in the time interval of 15 to 120 min after peptide injection. Student's t-criterion was used for statistical calculations of the results. Statistical significance were at the level of p≦0.05.

BALB/c male mice = assay: Antinociceptive activity, tail flick test with heat radiation, intragastral or intraperitoneal; type: in vivo
Procedure: For estimation of oral activity of novel cyclopeptides of the present invention, the “tail flick” test was used. The results were compared with those obtained using intraperitoneal administration.
Antinociceptive activity of the peptides of the present invention was assessed in experiments on BALB/c male mice weighing 22 to 24 g. The peptides were dissolved in saline and administered intraperitoneally or intragastrally.
The “Tail flick” test (D'Amour, F. E. et al. “A Method for Determining Loss of Pain Sensation”, J. Pharmacol. Exp. Ther., Vol. 72, Pages 74 to 79, 1941) was performed on an analgesimeter type 812, Hugo Sachs Electronick KG. Antinociceptive activity was defined as the absence of tail flick response on stimulation with a focused bundle of heat radiation with 6 sec at baseline response of 2.0-3.0 seconds.
Statistical treatment of the results was carried out by the Student's paired t-test.

[4] = 100 μg per animal, no adjuvant = 1
[5] = OVA + adjuvant 10 μg per animal
[6] = OVA + adjuvant 100 μg per animal
[7] = 100 μg per animal, no adjuvant 3.9

μ-receptor (isolated guinea pig ileum, GPI), sequence (P97266 whole entry): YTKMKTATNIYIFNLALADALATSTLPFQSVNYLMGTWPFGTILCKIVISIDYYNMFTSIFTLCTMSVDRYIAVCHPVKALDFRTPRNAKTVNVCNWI

## COC(=O)[C@H](Cc1c[nH]c2ccccc12)NC(=O)CC[C@@H]1NC(=O)[C@H](C)NC1=O [Compound 16, Cyclo-L-Ala-L-Glu-(L-Trp-OMe)]
[1]; 100 μg/kg per/os
  % stimulation: 74.8%
  Colony count: 8.9 ± 0.5
[1]; 100 μg/kg s/c
  % stimulation: 67.2%
  Colony count: 8.0 ± 0.5

## CCCCCCCCCCCCCCCC(=O)NCCCC[C@@H]1NC(=O)[C@H](CCC(=O)N[C@H](Cc2c[nH]c3ccccc23)C(=O)O)NC1=O [Compound 26a, cyclo [L-Lys(Palmitoyil)-L-Glu(D-Trp-OH)]]
[2]
  soluble in 0.1% NH4OH at a concentration of: 1 mg per 1 to 2 ml
  solubility when titrated with 0.1% AcOH: remain soluble
Anti-OVA antibody titers
  adjuvant activity (FIG. 4), doses at which active: active at 10 μg/kg
Anti-OVA antibody titers; 1 μg per animal
  Stimulation index: 2.0
  Pool: 4.4
Anti-OVA antibody titers; 10 μg per animal
  Stimulation index: 6.5
  Pool: 5.7
Anti-OVA antibody titers; [4]
  Stimulation index: 3.3
Anti-OVA antibody titers; OVA + adjuvant 1 μg per animal
  Anti-protein antibody titer: 4.8 and 5.1 (4×) and 4.5 and 4.4
Anti-OVA antibody titers; [5]
  Anti-protein antibody titer: 5.5 (4×) and 5.8 and 5.7 (2×)
Anti-OVA antibody titers; [6]
  Anti-protein antibody titer: 4.8 (4×) and 4.4 and 5.1 and 5.4
Anti-OVA antibody titers; [7]
  Pool: 5.1

## CCCCCCCCCCCCCCCC(=O)NCCCC[C@H]1NC(=O)[C@@H](CCC(=O)N[C@H](Cc2c[nH]c3ccccc23)C(=O)O)NC1=O [Compound 26b, cyclo [D-Lys(Palmitoyil)-D-Glu(D-Trp-OH)]]
[2]
  soluble in 0.1% NH4OH at a concentration of: 1 mg per 1 to 2 ml
  solubility when titrated with 0.1% AcOH: remain soluble
Anti-OVA antibody titers
  adjuvant activity (FIG. 4), doses at which active: not an active compound
Anti-OVA antibody titers; 1 μg per animal
  Stimulation index: 4.9
  Pool: 5.1
Anti-OVA antibody titers; 10 μg per animal
  Stimulation index: 2.7
  Pool: 4.8
Anti-OVA antibody titers; [4]
  Stimulation index: 2.6
Anti-OVA antibody titers; OVA + adjuvant 1 μg per animal
  Anti-protein antibody titer: 5.4 (2×) and 4.5 and 3.8 and 3.5 and 5.1
Anti-OVA antibody titers; [5]
  Anti-protein antibody titer: 4.7 (3×) and 5.1 and 4.8 (2×)
Anti-OVA antibody titers; [6]
  Anti-protein antibody titer: 4.5 (2×) and 4.8 (3×) and 4.2
Anti-OVA antibody titers; [7]
  Pool: 4.8

## CNC(=O)[C@H](CO)NC(=O)[C@@H]1CCCN1C(=O)[C@H](Cc1ccc(O)cc1)NC(=O)[C@@H](C)NC(=O)[C@H](Cc1ccccc1)NC(=O)[C@@H](C)NC(=O)[C@@H](N)Cc1ccc(O)cc1 [Compound 50, H-Tyr-D-Ala-Phe-D-Ala-Tyr-Pro-Ser-NH-CH3, reference compound] (H-Y[dA]F[dA]YPS-NHMe)
[3]; negative logarithm of EC50
  Value of pD2 (M ± m): 7.95 ± 0.07
[3]; read-out: Median EC50 in M, concentration reducing contraction amplitude by 50%, 5 replications
  EC50: 9.5 nM
Mice F1(CBAxC57D16); 5 mg/kg group
  Initial sensitivity level: 3.0 ± 0.1 s
Mice F1(CBAxC57D16); 5 mg/kg i.p., 15 min after injection
  Effect duration: 9.0 ± 1.7 s
Mice F1(CBAxC57D16); 5 mg/kg i.p., 30 min
  Effect duration: 10.3 ± 2.6 s
Mice F1(CBAxC57D16); 5 mg/kg i.p., 45 min
  Effect duration: 14.3 ± 3.7 s
Mice F1(CBAxC57D16); 5 mg/kg i.p., 60 min
  Effect duration: 10.8 ± 1.9 s
Mice F1(CBAxC57D16); 5 mg/kg i.p., 90 min
  Effect duration: 6.4 ± 1.5 s
Mice F1(CBAxC57D16); 5 mg/kg i.p., 120 min
  Effect duration: 3.5 ± 0.2 s
Mice F1(CBAxC57D16); 10 mg/kg group
  Initial sensitivity level: 2.9 ± 0.2 s
Mice F1(CBAxC57D16); 10 mg/kg i.p., 15 min
  Effect duration: 5.9 ± 0.7 s
Mice F1(CBAxC57D16); 10 mg/kg i.p., 30 min
  Effect duration: 10.7 ± 0.8 s
Mice F1(CBAxC57D16); 10 mg/kg i.p., 45 min
  Effect duration: 12.2 ± 2.6 s
Mice F1(CBAxC57D16); 10 mg/kg i.p., 60 min
  Effect duration: 7.2 ± 1.2 s
Mice F1(CBAxC57D16); 10 mg/kg i.p., 90 min
  Effect duration: 6.9 ± 1.4 s
Mice F1(CBAxC57D16); 10 mg/kg i.p., 120 min
  Effect duration: 3.7 ± 0.4 s
BALB/c male mice; Table 11, oral 50 mg/kg group, before administration
  Initial sensitivity level, mean: 2.6 ± 0.1 s
BALB/c male mice; Table 11, oral 50 mg/kg, 15 min, cut-off 6 sec
  Effect duration: 3.3 ± 0.6 s
BALB/c male mice; Table 11, oral 50 mg/kg, 30 min
  Effect duration: 2.3 ± 0.1 s
BALB/c male mice; Table 11, oral 50 mg/kg, 90 min
  Effect duration: 4.3 ± 0.6 s
BALB/c male mice; Table 12, intraperitoneal 10 mg/kg group, before injection
  Initial sensitivity level, mean: 2.0 ± 0.1 s
BALB/c male mice; Table 12, intraperitoneal 10 mg/kg, 15 min, cut-off 6 sec
  Effect duration: 3.6 ± 0.7 s
